Laboratory results taken from ChEMBL document CHEMBL4296182, “CO-ADD screening of NIH NCI Diversity Set V”.
≈ marks a conversion by molar mass, not a printed value.

What was measured:
[1] = system: Acinetobacter baumannii; assay: microbe, parasite or virus in culture; settings: ATCC 19606, 18 h, ASSAY_TEST Inhibition of Bacterial Growth, detection method Absorption (OD600), MEDIA CAMHB, plate type 384well, NBS, CORNING #3640
Description: Antibacterial activity against Acinetobacter baumannii ATCC 19606 (CO-ADD:GN_034); MIC in CAMBH media using NBS plates, by OD600

[2] = system: Klebsiella pneumoniae; assay: microbe, parasite or virus in culture; settings: ATCC 700603, 18 h, ASSAY_TEST Inhibition of Bacterial Growth, detection method Absorption (OD600), MEDIA CAMHB, plate type 384well, NBS, CORNING #3640
Description: Antibacterial activity against Klebsiella pneumoniae MDR ATCC 70063 (CO-ADD:GN_003); MIC in CAMBH media using NBS plates, by OD(600)

[3] = system: Pseudomonas aeruginosa; assay: microbe, parasite or virus in culture; settings: ATCC 27853, 18 h, ASSAY_TEST Inhibition of Bacterial Growth, detection method Absorption (OD600), MEDIA CAMHB, plate type 384well, NBS, CORNING #3640
Description: Antibacterial activity against Pseudomonas aeruginosa ATCC 27853 (CO-ADD:GN_042); MIC in CAMBH media using NBS plates, by OD(600)

[4] = system: Candida albicans; assay: microbe, parasite or virus in culture; settings: ATCC 90028, ASSAY_TEST Inhibition of Fungal Growth, detection method Absorption (OD530), plate type 384well, NBS, CORNING #3640
Description: Antifungal activity against Candida albicans ATCC 90028 (CO-ADD:FG_001); MIC in YNB media using NBS plates, by OD630

[5] = system: HEK293; assay: cells; type: functional; settings: Homo sapiens, ATCC CRL1573, HEK293; ASSAY_TEST Inhibition of Cell Viability; detection method Resazurin; Fluorescence (ex560/em590); MEDIA DMEM with 10% FBS; plate type 384well; TC; CORNING #3712; time 18 hr
[6] = system: Escherichia coli; assay: microbe, parasite or virus in culture; settings: ATCC 25922, 18 h, ASSAY_TEST Inhibition of Bacterial Growth, detection method Absorption (OD600), MEDIA CAMHB, plate type 384well, NBS, CORNING #3640
Description: Antibacterial activity against Escherichia coli ATCC 25922 (CO-ADD:GN_001); MIC in CAMBH media using NBS plates, by OD(600)

[7] = system: Cryptococcus neoformans
Description: Antifungal activity against Cryptococcus neoformans H99 ATCC 208821 (CO-ADD:FG_002); MIC in YNB media using NBS plates, by Resazurin OD(600-570)

[8] = system: Staphylococcus aureus; assay: microbe, parasite or virus in culture; settings: ATCC 43300, 18 h, ASSAY_TEST Inhibition of Bacterial Growth, detection method Absorption (OD600), MEDIA CAMHB, plate type 384well, NBS, CORNING #3640
Description: Antibacterial activity against Staphylococcus aureus MRSA ATCC 43300 (CO-ADD:GP_020); MIC in CAMBH media, using NBS plates, by OD(600)

Row | SMILES | MIC [1] [µM] | MIC [2] [µM] | MIC [3] [µM] | MIC [4] [µM] | MIC [6] [µM] | MIC [7] [µM] | MIC [8] [µM] | CC50 [5] [µM]
1 | Cc1nc(/N=N/c2ccccc2)[nH]c1/N=N/c1ccccc1 | > 10 | > 10 | > 10 | > 10 | > 10 | > 10 | > 10 | > 10
2 | COC(=O)C1(F)C(=O)NC(=O)NC1OC (stereo not drawn) | > 10 | > 10 | > 10 | > 10 | > 10 | > 10 | 5 (≈ 1.1 µg/mL) | > 10
3 | COC(=O)C1C(O)C(C)C(O)C(C)/C=C\C=C(/C)C(=O)Nc2c(C)c(OC(C)=O)c3c(c2O)C(=O)C(C)=C2OCOC(=C23)/C(C)=C/C(C)(O)C(O)C(C)C1O (stereo not drawn) | > 10 | > 10 | > 10 | > 10 | > 10 | > 10 | 1.25 (≈ 0.962 µg/mL) | 9.11
4 | Clc1ccc(SCNc2ccccc2Cl)cc1 | > 10 | > 10 | > 10 | > 10 | > 10 | > 10 | > 10 | > 10
5 | O=[N+]([O-])c1cc([N+](=O)[O-])c2cccnc2c1O | > 10 | > 10 | > 10 | 10 (≈ 2.35 µg/mL) | > 10 | > 10 | > 10 | > 10
6 | O=C(O)c1[nH]c(=O)[nH]c(=O)c1F | > 10 | > 10 | > 10 | > 10 | > 10 | > 10 | > 10 | > 10
7 | Cc1cnc(SCc2ccc(Cl)cc2Cl)nc1O | > 10 | > 10 | > 10 | > 10 | > 10 | > 10 | > 10 | > 10
8 | Oc1cccc2nc3ccccc3nc12 | > 10 | > 10 | > 10 | > 10 | > 10 | > 10 | > 10 | > 10

The next lines start with results.

Row | MIC [1] [µM] | MIC [2] [µM] | MIC [3] [µM] | MIC [4] [µM] | MIC [6] [µM] | MIC [7] [µM] | MIC [8] [µM] | SMILES | CC50 [5] [µM]
9 | > 10 | > 10 | 2.5 | ≤ 0.0781 | > 10 | 1.25 | ≤ 0.0781 | CCN(CC)c1ccc(C(=C2C=CC(=[N+](CC)CC)C=C2)c2ccc(N(CC)CC)cc2)cc1 | 1.47
10 | > 10 | > 10 | > 10 | > 10 | > 10 | > 10 | 10 (≈ 2.68 µg/mL) | NC1(N2SC(S)=C3CCCC=C32)CCCCC1 | > 10
11 | > 10 | > 10 | > 10 | > 10 | > 10 | > 10 | > 10 | Cc1c(-c2ccccc2)n(O)[n+]([O-])c1-c1ccccc1 | > 10
12 | > 10 | > 10 | > 10 | > 10 | > 10 | > 10 | > 10 | CNc1ncn(-c2c(C)cccc2C)c(=O)n1 | > 10
13 | > 10 | > 10 | > 10 | > 10 | > 10 | > 10 | > 10 | OC(c1cc(-c2ccc(Cl)cc2)nc2ccccc12)C1CCCCN1 (stereo not drawn) | > 10
14 | > 10 | > 10 | > 10 | 1.25 (≈ 0.363 µg/mL) | > 10 | 10 (≈ 2.9 µg/mL) | > 10 | O=[N+]([O-])c1ccc(Sc2cccc[n+]2[O-])c2nonc12 | 2.53
15 | > 10 | > 10 | > 10 | > 10 | > 10 | > 10 | > 10 | Oc1c(CN2CCN(c3ccccc3)CC2)cc(Br)c2cccnc12 | > 10
16 | > 10 | > 10 | > 10 | > 10 | > 10 | > 10 | > 10 | Nc1ccc(S(=O)(=O)Nc2cnc3ccccc3n2)cc1 [SULFAQUINOXALINE] | > 10
